20 compounds from ChEMBL document CHEMBL5291721, “A preclinical secondary pharmacology resource illuminates target-adverse drug reaction associations of marketed drugs” (Nat Commun, 2023) can be followed below.

As usually defined, the AC50 is the concentration giving half of the maximal activity seen. The low end stands for greater potency, the high end for weaker potency.

Each structure is given as a SMILES string. Where only a bound is given, the exact number is not on record here.

Some targets named below: D(3) dopamine receptor (Homo sapiens, UniProt P35462); Motilin receptor (Homo sapiens, UniProt O43193); Vasopressin V2 receptor (Homo sapiens, UniProt P30518).
Assay [1] addresses Glutamate receptor ionotropic, NMDA 1 (Rattus norvegicus, UniProt P35439).
The target of another assay is T1, Adenosine receptor A1 (Homo sapiens, UniProt P30542).
T1 sequence (P30542 whole entry): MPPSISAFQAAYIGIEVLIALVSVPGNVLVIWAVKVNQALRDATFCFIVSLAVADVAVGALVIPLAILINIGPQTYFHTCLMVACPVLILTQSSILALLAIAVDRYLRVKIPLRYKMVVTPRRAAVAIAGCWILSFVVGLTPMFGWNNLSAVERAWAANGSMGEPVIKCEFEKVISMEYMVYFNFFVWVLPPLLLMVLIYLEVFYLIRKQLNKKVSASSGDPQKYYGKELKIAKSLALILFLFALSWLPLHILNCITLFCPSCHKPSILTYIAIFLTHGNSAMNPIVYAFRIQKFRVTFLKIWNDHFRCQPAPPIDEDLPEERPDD

A further assay deals with T2, Thromboxane A2 receptor (Homo sapiens, UniProt P21731).
T2 sequence (P21731 whole entry): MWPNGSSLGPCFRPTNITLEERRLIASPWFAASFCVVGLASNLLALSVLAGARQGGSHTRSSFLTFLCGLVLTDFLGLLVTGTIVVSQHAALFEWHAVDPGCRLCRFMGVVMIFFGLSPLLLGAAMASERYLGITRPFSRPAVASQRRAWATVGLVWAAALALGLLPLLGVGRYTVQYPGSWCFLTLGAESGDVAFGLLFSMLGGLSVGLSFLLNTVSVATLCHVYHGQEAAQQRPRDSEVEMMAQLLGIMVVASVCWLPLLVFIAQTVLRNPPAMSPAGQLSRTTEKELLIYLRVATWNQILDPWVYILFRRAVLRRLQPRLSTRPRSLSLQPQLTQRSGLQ

The target in assay [2] is T3, Equilibrative nucleoside transporter 1 (Homo sapiens, UniProt Q99808).
T3 sequence (Q99808 whole entry): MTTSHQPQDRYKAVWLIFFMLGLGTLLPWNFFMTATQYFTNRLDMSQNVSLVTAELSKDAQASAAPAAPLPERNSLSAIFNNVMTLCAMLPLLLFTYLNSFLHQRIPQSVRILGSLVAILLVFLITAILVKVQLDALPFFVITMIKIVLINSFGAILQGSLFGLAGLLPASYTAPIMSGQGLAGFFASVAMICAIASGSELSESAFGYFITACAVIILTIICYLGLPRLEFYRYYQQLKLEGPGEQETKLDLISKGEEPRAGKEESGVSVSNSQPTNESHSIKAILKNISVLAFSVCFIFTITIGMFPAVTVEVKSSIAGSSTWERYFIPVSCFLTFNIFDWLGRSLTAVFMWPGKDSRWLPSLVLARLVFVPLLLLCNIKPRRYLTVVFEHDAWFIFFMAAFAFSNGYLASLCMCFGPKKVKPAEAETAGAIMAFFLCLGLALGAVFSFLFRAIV

Assay [3] deals with Neuronal acetylcholine receptor subunit alpha-4 (Homo sapiens, UniProt P43681).
Chain of Neuronal acetylcholine receptor subunit alpha-4 (P43681 whole entry): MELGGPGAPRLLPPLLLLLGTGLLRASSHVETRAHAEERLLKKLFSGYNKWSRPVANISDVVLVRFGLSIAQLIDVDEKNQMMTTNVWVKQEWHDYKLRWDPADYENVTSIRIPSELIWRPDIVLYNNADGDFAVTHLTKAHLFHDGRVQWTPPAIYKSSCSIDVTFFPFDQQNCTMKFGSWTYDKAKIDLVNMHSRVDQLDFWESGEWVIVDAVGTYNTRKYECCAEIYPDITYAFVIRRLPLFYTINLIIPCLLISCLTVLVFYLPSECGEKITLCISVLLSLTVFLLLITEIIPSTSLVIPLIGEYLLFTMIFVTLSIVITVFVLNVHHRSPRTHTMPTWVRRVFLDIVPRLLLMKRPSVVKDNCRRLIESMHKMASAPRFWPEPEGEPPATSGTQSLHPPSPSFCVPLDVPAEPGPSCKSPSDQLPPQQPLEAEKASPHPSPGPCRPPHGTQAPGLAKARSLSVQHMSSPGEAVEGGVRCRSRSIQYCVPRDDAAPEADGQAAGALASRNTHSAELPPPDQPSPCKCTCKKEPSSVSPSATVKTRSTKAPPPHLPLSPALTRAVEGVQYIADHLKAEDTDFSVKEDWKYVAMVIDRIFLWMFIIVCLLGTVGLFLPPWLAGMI
Further: assay procedure not described here.

Chain of Vasopressin V2 receptor (P30518 whole entry): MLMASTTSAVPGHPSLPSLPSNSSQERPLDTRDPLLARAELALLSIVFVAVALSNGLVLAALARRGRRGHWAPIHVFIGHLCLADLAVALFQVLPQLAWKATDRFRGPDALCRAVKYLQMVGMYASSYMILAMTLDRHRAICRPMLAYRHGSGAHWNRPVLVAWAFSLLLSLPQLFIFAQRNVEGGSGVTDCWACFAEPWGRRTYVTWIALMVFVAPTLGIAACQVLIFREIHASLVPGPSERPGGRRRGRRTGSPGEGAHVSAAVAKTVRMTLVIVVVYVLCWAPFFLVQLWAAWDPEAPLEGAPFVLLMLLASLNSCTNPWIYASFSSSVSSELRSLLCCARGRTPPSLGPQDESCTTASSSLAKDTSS
Chain of Motilin receptor (O43193 whole entry): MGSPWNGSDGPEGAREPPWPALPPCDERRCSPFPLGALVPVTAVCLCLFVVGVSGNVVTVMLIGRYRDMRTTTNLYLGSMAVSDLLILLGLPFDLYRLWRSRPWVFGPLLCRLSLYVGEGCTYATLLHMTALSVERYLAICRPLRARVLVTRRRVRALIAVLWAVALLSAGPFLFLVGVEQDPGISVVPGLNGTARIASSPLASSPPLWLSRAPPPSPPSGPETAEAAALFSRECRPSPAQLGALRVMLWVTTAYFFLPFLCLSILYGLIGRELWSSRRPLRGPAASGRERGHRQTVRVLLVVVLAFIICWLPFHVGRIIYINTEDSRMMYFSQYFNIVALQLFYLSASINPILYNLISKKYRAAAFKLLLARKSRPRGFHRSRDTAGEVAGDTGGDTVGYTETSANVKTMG
Chain of D(3) dopamine receptor (P35462 whole entry): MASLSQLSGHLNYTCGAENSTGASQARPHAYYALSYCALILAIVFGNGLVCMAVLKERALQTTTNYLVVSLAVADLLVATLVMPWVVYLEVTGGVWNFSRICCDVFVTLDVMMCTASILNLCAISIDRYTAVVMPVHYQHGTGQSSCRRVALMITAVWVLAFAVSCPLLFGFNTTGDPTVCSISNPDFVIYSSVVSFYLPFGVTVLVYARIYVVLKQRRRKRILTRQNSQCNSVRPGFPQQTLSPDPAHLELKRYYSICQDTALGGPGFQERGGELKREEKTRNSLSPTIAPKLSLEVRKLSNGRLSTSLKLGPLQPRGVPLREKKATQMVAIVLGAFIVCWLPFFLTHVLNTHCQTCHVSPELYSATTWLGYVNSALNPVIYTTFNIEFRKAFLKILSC

For `C[N+]1(C)CCC(=C(c2ccccc2)c2ccccc2)CC1`, the AC50 on D(3) dopamine receptor is greater than 30 µM; in assay [1], greater than 10 µM; on Adenosine receptor A1, greater than 30 µM; on Motilin receptor, greater than 30 µM; on Vasopressin V2 receptor it was greater than 30 µM; at Thromboxane A2 receptor it was greater than 30 µM. The concentration at half-maximal activity (AC50) is greater than 10 µM in assay [2] and 16.2 µM in assay [3].

`C[N+](C)(C)CCOP(=O)([O-])OC[C@H](O)CO`: the AC50 (on D(3) dopamine receptor; in assay [1]; at Adenosine receptor A1; at Motilin receptor; on Vasopressin V2 receptor; at Thromboxane A2 receptor) was greater than 30 µM in each case. For the same compound, the AC50 in assay [2] and in assay [3] was greater than 30 µM throughout.

On to `CN(C)Cc1nnc2n1-c1ccc(Cl)cc1C(c1ccccc1)=NC2` [ADINAZOLAM], for which the AC50 was greater than 30 µM at D(3) dopamine receptor; greater than 10 µM in assay [1]; greater than 10 µM on Adenosine receptor A1; greater than 10 µM at Motilin receptor; greater than 10 µM on Vasopressin V2 receptor; greater than 10 µM on Thromboxane A2 receptor. Further, the AC50 in assay [2] and in assay [3] was greater than 10 µM in each case.

For the compound `CN(C)C/C=C/C(=O)Nc1cc2c(Nc3ccc(F)c(Cl)c3)ncnc2cc1O[C@H]1CCOC1` [AFATINIB], the concentration at half-maximal activity (AC50) (at D(3) dopamine receptor; in assay [1]; on Adenosine receptor A1; at Motilin receptor; on Vasopressin V2 receptor; in assay [2]) was greater than 30 µM in each case. Further, the AC50 in assay [3] is greater than 30 µM.

For `Cc1ccccc1-n1c(CF)nc2ccc(N)cc2c1=O` [AFLOQUALONE], the AC50 on D(3) dopamine receptor was greater than 30 µM; in assay [1], greater than 10 µM; at Adenosine receptor A1 it was greater than 30 µM; at Motilin receptor, greater than 30 µM; on Vasopressin V2 receptor, greater than 30 µM; on Thromboxane A2 receptor, greater than 30 µM. Further, the AC50 in assay [2] and in assay [3] was greater than 30 µM each time.

Turning to `CCC1(c2ccc(N)cc2)CCC(=O)NC1=O` (stereo unspecified) [AMINOGLUTETHIMIDE], the AC50 (on D(3) dopamine receptor; in assay [1]; at Adenosine receptor A1; on Motilin receptor; at Vasopressin V2 receptor; at Thromboxane A2 receptor) was greater than 30 µM in each case. Besides, the AC50 in assay [2] and in assay [3] was greater than 30 µM each time.

As for `CC1=C(C(=O)OC(C)C)C(c2cccc([N+](=O)[O-])c2)C(C(=O)OC2CN(C(c3ccccc3)c3ccccc3)C2)=C(N)N1` (stereo unspecified) [AZELNIDIPINE], the concentration at half-maximal activity (AC50) on D(3) dopamine receptor was greater than 30 µM; in assay [1], greater than 30 µM; at Adenosine receptor A1 it was greater than 30 µM; at Motilin receptor it was 16 µM; at Vasopressin V2 receptor, greater than 30 µM; on Thromboxane A2 receptor, greater than 30 µM. Also, the half-maximal activity concentration (AC50) in assay [2] and in assay [3] was greater than 30 µM each time.

On to `CC(Cc1cccc(C(F)(F)F)c1)NCCOC(=O)c1ccccc1` (stereo unspecified) [BENFLUOREX], for which the AC50 is 2.63 µM at D(3) dopamine receptor; greater than 30 µM in assay [1]; greater than 30 µM at Adenosine receptor A1; greater than 30 µM on Motilin receptor; greater than 30 µM at Vasopressin V2 receptor; greater than 30 µM at Thromboxane A2 receptor. The same compound had a concentration at half-maximal activity (AC50) in assay [3] greater than 30 µM.

`CCOC(=O)c1ccc(N)cc1` [BENZOCAINE]: the half-maximal activity concentration (AC50) at D(3) dopamine receptor was greater than 30 µM; in assay [1], greater than 10 µM; at Adenosine receptor A1 it was greater than 10 µM; on Motilin receptor it was greater than 10 µM; on Vasopressin V2 receptor, greater than 10 µM; at Thromboxane A2 receptor it was greater than 10 µM. The AC50 in assay [2] and in assay [3] was greater than 10 µM throughout.

With `CC(C)(Oc1ccc(CCNC(=O)c2ccc(Cl)cc2)cc1)C(=O)O` [BEZAFIBRATE], the concentration at half-maximal activity (AC50) at D(3) dopamine receptor is greater than 30 µM; in assay [1], greater than 10 µM; on Adenosine receptor A1, greater than 10 µM; on Motilin receptor, greater than 10 µM; at Vasopressin V2 receptor, greater than 10 µM; on Thromboxane A2 receptor it was greater than 10 µM. Also, the AC50 in assay [2] and in assay [3] was greater than 10 µM in each case.

As for `C/C=C(/C(=C/C)c1ccc(O)cc1)c1ccc(O)cc1` [DIENESTROL], the AC50 was greater than 30 µM on D(3) dopamine receptor; greater than 10 µM in assay [1]; greater than 30 µM at Adenosine receptor A1; greater than 10 µM at Motilin receptor; greater than 10 µM on Vasopressin V2 receptor; greater than 10 µM on Thromboxane A2 receptor. The AC50 is greater than 30 µM in assay [2] and greater than 10 µM in assay [3].

On to `CN[C@]1(c2ccccc2Cl)CCCCC1=O` [ESKETAMINE], for which the AC50 on D(3) dopamine receptor is greater than 30 µM; in assay [1], 0.79 µM; on Adenosine receptor A1 it was greater than 30 µM; on Motilin receptor, greater than 30 µM; at Vasopressin V2 receptor it was greater than 30 µM; at Thromboxane A2 receptor it was greater than 30 µM. Also, the half-maximal activity concentration (AC50) in assay [2] and in assay [3] was greater than 30 µM each time.

On to `COc1ccc([C@@H]2CC(=O)c3c(O)cc(O)cc3O2)cc1O` [HESPERETIN], for which the AC50 was greater than 30 µM at D(3) dopamine receptor; greater than 10 µM in assay [1]; greater than 10 µM at Adenosine receptor A1; greater than 10 µM on Motilin receptor; greater than 10 µM at Vasopressin V2 receptor; greater than 10 µM on Thromboxane A2 receptor. In addition, the AC50 in assay [2] and in assay [3] was greater than 10 µM each time.

Take `CNCCc1ccc(OC(=O)C(C)C)c(OC(=O)C(C)C)c1` [IBOPAMINE]: the AC50 on D(3) dopamine receptor is 0.767 µM; in assay [1], greater than 30 µM; on Adenosine receptor A1, greater than 30 µM; at Motilin receptor it was greater than 30 µM; on Vasopressin V2 receptor it was greater than 30 µM; on Thromboxane A2 receptor, greater than 30 µM. Moreover, the AC50 in assay [2] and in assay [3] was greater than 30 µM throughout.

`CN(C)CCCN1c2ccccc2CCc2ccccc21` [IMIPRAMINE]: the AC50 at D(3) dopamine receptor is 0.41 µM; at Adenosine receptor A1, greater than 30 µM; on Motilin receptor, greater than 10 µM; at Vasopressin V2 receptor, greater than 30 µM; at Thromboxane A2 receptor, greater than 30 µM; in assay [2], greater than 30 µM.

In the case of `CCOC(=O)C1=C(C)NC(C)=C(C(=O)OCC)C1c1ccccc1/C=C/C(=O)OC(C)(C)C` [LACIDIPINE], the AC50 (at D(3) dopamine receptor; in assay [1]; at Adenosine receptor A1; at Motilin receptor; on Vasopressin V2 receptor; at Thromboxane A2 receptor) was greater than 30 µM throughout. In addition, the AC50 in assay [2] and in assay [3] was greater than 30 µM in each case.

On to `CCC[C@@H]1C[C@@H](C(=O)N[C@@H]([C@H]2O[C@H](SC)[C@H](O)[C@@H](O)[C@H]2O)[C@@H](C)O)N(C)C1` [LINCOMYCIN], for which the AC50 at D(3) dopamine receptor was greater than 30 µM; in assay [1], greater than 10 µM; at Adenosine receptor A1 it was greater than 10 µM; on Motilin receptor, greater than 10 µM; on Vasopressin V2 receptor, greater than 10 µM; on Thromboxane A2 receptor, greater than 10 µM. For the same compound, the AC50 in assay [2] and in assay [3] was greater than 10 µM each time.

With `OC[C@H]1O[C@@H](n2cnc3c2NC=NC[C@H]3O)C[C@@H]1O` [PENTOSTATIN], the AC50 on D(3) dopamine receptor was greater than 30 µM; in assay [1], greater than 30 µM; on Adenosine receptor A1, 0.41 µM; at Motilin receptor it was greater than 30 µM; on Vasopressin V2 receptor, greater than 30 µM; in assay [2], greater than 30 µM. Further, the concentration at half-maximal activity (AC50) in assay [3] is greater than 30 µM.

As to `CC(C)c1cccc(C(C)C)c1O` [PROPOFOL], the AC50 (on D(3) dopamine receptor; on Adenosine receptor A1; at Motilin receptor; in assay [2]; in assay [3]) was greater than 30 µM in each case.

Regarding `CCCN1CC(NS(=O)(=O)N(CC)CC)CC2Cc3c(O)cccc3CC21` (stereo unspecified) [QUINAGOLIDE], the AC50 on D(3) dopamine receptor was 0.0028 µM; in assay [1] it was greater than 30 µM; at Adenosine receptor A1, greater than 30 µM; on Motilin receptor, greater than 30 µM; at Vasopressin V2 receptor, greater than 30 µM; on Thromboxane A2 receptor it was greater than 30 µM. The compound further gave an AC50 in assay [3] greater than 30 µM.
